# Measurements from patent publication US9204653B2, “5-fluoro pyrimidine derivatives” (DOW AGROSCIENCES LLC, priority 2008, dated 2015).
# Where two headings read alike, the source gives them in different places.
# Tested on: Mycosphaerella graminicola; Anamorph: Septoria tritici; Bayer Code SEPTTR
# Test: Leaf blotch of wheat, foliar fungicide treatment, one day protectant (1DP) or three day curative (3DC)
# Assay type: in vivo, Septoria tritici on wheat plants (variety Yuma)
# Settings: Zymoseptoria tritici; for pest or weed control at 50 ppm / pest or weed control at 200 ppm: % disease control rating
# [1] = 24 h, one day protectant (1DP), 25 ppm, percent disease control rating, read-out: SETTTR 1DP 25 ppm
# [2] = 24 h, one day protectant (1DP), percent disease control rating, read-out: SEPTTR 1DP 100 ppm
# [3] = 72 h, three day curative (3DC), 25 ppm, percent disease control rating, read-out: SEPTTR 3DC 25 ppm
# [4] = 72 h, three day curative (3DC), percent disease control rating, read-out: SEPTTR 3DC 100 ppm
# [5] = 24 h, one day protectant (1DP), 25 ppm (first 1DP column), percent control rating, read-out: SETTTR 1DP 25 ppm
# [6] = 24 h, one day protectant (1DP), 25 ppm as printed (second 1DP column), percent control rating, read-out: SETTTR 1DP 25 ppm
# [7] = 72 h, three day curative (3DC), 25 ppm, percent control rating, read-out: SEPTTR 3DC 25 ppm
# [8] = 72 h, three day curative (3DC), percent control rating, read-out: SEPTTR 3DC 100 ppm
# [9] = 24 h, one day protectant (1DP), 25 ppm, rating of percent disease control, read-out: SETTTR 1DP 25 ppm
# [10] = 24 h, one day protectant (1DP), rating of percent disease control, read-out: SEPTTR 1DP 100 ppm
# [11] = 72 h, three day curative (3DC), 25 ppm, rating of percent disease control, read-out: SEPTTR 3DC 25 ppm
# [12] = 72 h, three day curative (3DC), rating of percent disease control, read-out: SEPTTR 3DC 100 ppm
smiles,measurement,setting,value
C[C@@H](Oc1ncc(F)c(N)n1)c1ccc(Br)cc1 [Compound 70],pest or weed control at 25 ppm,[1],26 to 50%
same,pest or weed control at 100 ppm,[2],76 to 100%
same,pest or weed control at 25 ppm,[3],26 to 50%
same,pest or weed control at 100 ppm,[4],76 to 100%
CC(Oc1ncc(F)c(N)n1)c1ccc2ccccc2c1 (stereo not drawn) [Compound 57],pest or weed control at 25 ppm,[1],76 to 100%
same,pest or weed control at 100 ppm,[2],76 to 100%
same,pest or weed control at 25 ppm,[3],76 to 100%
same,pest or weed control at 100 ppm,[4],76 to 100%
COc1cccc(COc2ncc(F)c(NSc3ccccc3[N+](=O)[O-])n2)c1 [Compound 85],pest or weed control at 25 ppm,[1],26 to 50%
same,pest or weed control at 100 ppm,[2],76 to 100%
same,pest or weed control at 25 ppm,[3],76 to 100%
same,pest or weed control at 100 ppm,[4],76 to 100%
COc1ncc(F)c(N/N=C/C2CC2)n1 [Compound 1022],pest or weed control at 25 ppm,[5],0 to 25%
same,pest or weed control at 25 ppm,[6],0 to 25%
same,pest or weed control at 25 ppm,[7],0 to 25%
same,pest or weed control at 100 ppm,[8],26 to 50%
Fc1cccc(COc2ncc(F)c(NCc3ccc(Cl)cc3)n2)c1 [Compound 820],pest or weed control at 50 ppm,"24 h, one day protectant",26 to 50%
same,pest or weed control at 200 ppm,"24 h, one day protectant",76 to 100%
CC(=O)Nc1nc(OCc2cccc(Oc3ccccc3)c2)ncc1F [Compound 815],pest or weed control at 50 ppm,"24 h, one day protectant",76 to 100%
same,pest or weed control at 200 ppm,"24 h, one day protectant",76 to 100%
Nc1nc(OCc2cccc(I)c2)ncc1F [Compound 212],pest or weed control at 25 ppm,[9],76 to 100%
same,pest or weed control at 100 ppm,[10],76 to 100%
same,pest or weed control at 25 ppm,[11],76 to 100%
same,pest or weed control at 100 ppm,[12],76 to 100%
O=C(/C=C/c1ccccc1)Nc1nc(O)ncc1F [Compound 974],pest or weed control at 25 ppm,[5],51 to 75%
same,pest or weed control at 25 ppm,[6],76 to 100%
same,pest or weed control at 25 ppm,[7],51 to 75%
same,pest or weed control at 100 ppm,[8],26 to 50%
O=C(Nc1ccccc1F)Nc1nc(OCc2cccs2)ncc1F [Compound 799],pest or weed control at 25 ppm,[9],0 to 25%
same,pest or weed control at 100 ppm,[10],0 to 25%
same,pest or weed control at 25 ppm,[11],0 to 25%
same,pest or weed control at 100 ppm,[12],0 to 25%
CC(C)=NNc1nc(OCc2ccc(F)cc2)ncc1F [Compound 358],pest or weed control at 25 ppm,[9],0 to 25%
same,pest or weed control at 100 ppm,[10],51 to 75%
same,pest or weed control at 25 ppm,[11],26 to 50%
same,pest or weed control at 100 ppm,[12],76 to 100%
Nc1nc(OCc2cn3ccccc3n2)ncc1F [Compound 307],pest or weed control at 25 ppm,[9],76 to 100%
same,pest or weed control at 100 ppm,[10],76 to 100%
same,pest or weed control at 25 ppm,[11],76 to 100%
same,pest or weed control at 100 ppm,[12],76 to 100%
CC(C)(C)NNc1nc(OCc2ccc(F)cc2)ncc1F [Compound 775],pest or weed control at 25 ppm,[9],0 to 25%
same,pest or weed control at 100 ppm,[10],0 to 25%
same,pest or weed control at 25 ppm,[11],0 to 25%
same,pest or weed control at 100 ppm,[12],0 to 25%
CCOC(=O)CNC(=O)Nc1nc(O)ncc1F [Compound 976],pest or weed control at 25 ppm,[5],0 to 25%
same,pest or weed control at 25 ppm,[6],0 to 25%
same,pest or weed control at 25 ppm,[7],0 to 25%
same,pest or weed control at 100 ppm,[8],0 to 25%
CCN(N)c1nc(OCc2cccc(OC)c2)ncc1F [Compound 340],pest or weed control at 25 ppm,[9],0 to 25%
same,pest or weed control at 100 ppm,[10],76 to 100%
same,pest or weed control at 25 ppm,[11],26 to 50%
same,pest or weed control at 100 ppm,[12],76 to 100%
Fc1ccc(COc2ncc(F)c(NNc3ccccc3Cl)n2)cc1 [Compound 515],pest or weed control at 25 ppm,[9],0 to 25%
same,pest or weed control at 100 ppm,[10],76 to 100%
same,pest or weed control at 25 ppm,[11],0 to 25%
same,pest or weed control at 100 ppm,[12],0 to 25%
Cc1ccc(COc2ncc(F)c(N3CCOCC3)n2)cc1 [Compound 836],pest or weed control at 50 ppm,"24 h, one day protectant",51 to 75%
same,pest or weed control at 200 ppm,"24 h, one day protectant",76 to 100%
CC[Si](CC)(CC)Nc1nc(OCc2cccc(C#N)c2)ncc1F [Compound 599],pest or weed control at 25 ppm,"24 h, one day protectant, 25 ppm, rating of percent disease control, read-out: SETTTR 1DP 25 ppm",51 to 75%
same,pest or weed control at 100 ppm,"24 h, one day protectant, rating of percent disease control, read-out: SEPTTR 1DP 100 ppm",76 to 100%
same,pest or weed control at 25 ppm,"72 h, three day curative, 25 ppm, rating of percent disease control, read-out: SEPTTR 3DC 25 ppm",76 to 100%
same,pest or weed control at 100 ppm,"72 h, three day curative, rating of percent disease control, read-out: SEPTTR 3DC 100 ppm",76 to 100%
O=C(Nc1cccs1)Nc1nc(OCc2ccc(F)cc2)ncc1F [Compound 376],pest or weed control at 25 ppm,[9],0 to 25%
same,pest or weed control at 100 ppm,[10],0 to 25%
same,pest or weed control at 25 ppm,[11],0 to 25%
same,pest or weed control at 100 ppm,[12],26 to 50%
Cc1ccc(COc2ncc(F)c(NNc3ccc(Cl)nn3)n2)cc1 [Compound 1040],pest or weed control at 25 ppm,[5],0 to 25%
same,pest or weed control at 25 ppm,[6],0 to 25%
same,pest or weed control at 25 ppm,[7],0 to 25%
same,pest or weed control at 100 ppm,[8],0 to 25%
Fc1cnc(OCc2cccc(Cl)c2)nc1NC1CC1 [Compound 887],pest or weed control at 200 ppm,"24 h, one day protectant",76 to 100%
C/C(=N\Oc1ncc(F)c(N)n1)c1ccc(F)cc1 [Compound 72],pest or weed control at 25 ppm,[1],76 to 100%
same,pest or weed control at 100 ppm,[2],76 to 100%
same,pest or weed control at 25 ppm,[3],76 to 100%
same,pest or weed control at 100 ppm,[4],76 to 100%
